≈ marks a conversion by molar mass, not a printed value.
How the values were obtained:
[1] = Solubility of free base in various media; type: physicochemical
Excerpt: Solubility of N-(4-{4-amino-7-[1-(2-hydroxyethyl)-1H-pyrazol-4-yl]thieno[3,2-c]pyridin-3-yl}phenyl)-N′-(3-fluorophenyl)urea Free Base in Various Media

[2] = Solubility of free base in PEG-300/Cremophor EL/Ethanol vehicles; type: physicochemical
Excerpt: Solubility of N-(4-{4-amino-7-[1-(2-hydroxyethyl)-1H-pyrazol-4-yl]thieno[3,2-c]pyridin-3-yl}phenyl)-N′-(3-fluorophenyl)urea Free Base in PEG-300/Cremophor EL/Ethanol Vehicles

[3] = Pharmacokinetics of IV formulation in humans (Phase I, advanced solid tumors); type: in vivo; conditions: human, plasma, IV infusion approx. 2 hour
Excerpt: IV formulations of the invention were used in an open-label Phase I human study evaluating the safety and pharmacokinetics of N-(4-{4-amino-7-[1-(2-hydroxyethyl)-1H-pyrazol-4-yl]thieno[3,2-c]pyridin-3-yl}phenyl)-N′-(3-fluorophenyl)urea as monotherapy in subjects with advanced solid tumors, i.e., mixture of polyethylene glycol 300, polyoxyl 35 castor oil, and ethanol in a ratio of 45:45:10% w/w, and N-(4-{4-amino-7-[1-(2-hydroxyethyl)-1H-pyrazol-4-yl]thieno[3,2-c]pyridin-3-yl}phenyl)-N′-(3-fluorophenyl)urea, wherein the N-(4-{4-amino-7-[1-(2-hydroxyethyl)-1H-pyrazol-4-yl]thieno[3,2-c]pyridin-3-yl}phenyl)-N′-(3-fluorophenyl)urea is present in a concentration of about 6 mg/mL.
The number of subjects that entered the studies and completed at least a portion of the studies are noted. Subjects entered the study and were assigned to receive one of the following doses: 8 mg, 16 mg, or 32 mg.
Doses were administered on Day 1 and Day 15 of each 28 day cycle with an approximately 2 hour infusion. On Day 1 and Day 15, plasma samples are collected at time 0 (prior to infusion), 1 h 55 min (just before the end of the infusion), and at 0.5, 1, 2, 4, 6, 8, 10, 24 hours post the end of infusion. The plasma concentrations of N-(4-{4-amino-7-[1-(2-hydroxyethyl)-1H-pyrazol-4-yl]thieno[3,2-c]pyridin-3-yl}phenyl)-N′-(3-fluorophenyl)urea were determined, and the values for the pharmacokinetic parameters were calculated and shown in Table 7.

[4] = 8 mg, 8 mg, Study Day 1, mean ± SD, N 4
[5] = 8 mg, 8 mg, Study Day 15, mean ± SD, N 4
[6] = 16 mg, 16 mg, Study Day 15, N 1
[7] = 32 mg, 32 mg, Study Day 1, mean, N 2
[8] = 32 mg, 32 mg, Study Day 15, mean, N 2

Nc1ncc(-c2cnn(CCO)c2)c2scc(-c3ccc(NC(=O)Nc4cccc(F)c4)cc3)c12 [API, N-(4-{4-amino-7-[1-(2-hydroxyethyl)-1H-pyrazol-4-yl]thieno[3,2-c]pyridin-3-yl}phenyl)-N′-(3-fluorophenyl)urea]
solubility ([1]; 10% Cremophor EL in water, aqueous with cosolvent or surfactant or cyclodextrin, read-out: Solubility): 106 µg/mL (≈ 217 µM)
solubility ([1]; 10% Polysorbate 80 in water, aqueous with cosolvent or surfactant or cyclodextrin, read-out: Solubility): 146 µg/mL (≈ 299 µM)
solubility ([1]; 10% Solutol HS in water, aqueous with cosolvent or surfactant or cyclodextrin, read-out: Solubility): 152 µg/mL (≈ 311 µM)
solubility ([1]; Cremophor EL, organic solvent or mixture, Cremphor EL, read-out: Solubility): 7100 µg/mL (≈ 14500 µM)
solubility ([1]; DMA, organic solvent or mixture, read-out: Solubility): 35000 to 50000 µg/mL (≈ 71600 to 102000 µM)
solubility ([1]; Ethanol, organic solvent or mixture, read-out: Solubility): 130 µg/mL (≈ 266 µM)
solubility ([1]; PEG 300, organic solvent or mixture, read-out: Solubility): 20000 µg/mL (≈ 40900 µM)
solubility ([1]; PEG 400, organic solvent or mixture, read-out: Solubility): 20900 µg/mL (≈ 42800 µM)
solubility ([1]; Polysorbate 80, organic solvent or mixture, read-out: Solubility): 2500 µg/mL (≈ 5120 µM)
solubility ([1]; Propylene Glycol, organic solvent or mixture, read-out: Solubility): 1200 µg/mL (≈ 2460 µM)
solubility ([1]; Water (across physiological pH range), read-out: Solubility): < 0.03 µg/mL
solubility ([1]; water, pH 7.4, aqueous buffer, read-out: solubility in water): < 0.03 µg/mL
solubility ([2]; PEG-300/Cremophor EL/Ethanol 42.5/42.5/15, organic solvent or mixture, PEG-300/Cremophor EL/Ethanol ratio 42.5/42.5/15, 5° C., read-out: Solubility (mg/mL) at 5° C.): 11.9 mg/mL
solubility ([2]; PEG-300/Cremophor EL/Ethanol 42.5/42.5/15, organic solvent or mixture, PEG-300/Cremophor EL/Ethanol ratio 42.5/42.5/15, RT, read-out: Solubility (mg/mL) at RT): 10 mg/mL
solubility ([2]; PEG-300/Cremophor EL/Ethanol 45/45/10, organic solvent or mixture, PEG-300/Cremophor EL/Ethanol ratio 45/45/10, 5° C., read-out: Solubility (mg/mL) at 5° C.): 14.1 mg/mL
solubility ([2]; PEG-300/Cremophor EL/Ethanol 45/45/10, organic solvent or mixture, PEG-300/Cremophor EL/Ethanol ratio 45/45/10, RT, read-out: Solubility (mg/mL) at RT): 11.6 mg/mL
solubility ([2]; PEG-300/Cremophor EL/Ethanol 47.5/47.5/5, organic solvent or mixture, PEG-300/Cremophor EL/Ethanol ratio 47.5/47.5/5, 5° C., read-out: Solubility (mg/mL) at 5° C.): 16.4 mg/mL
solubility ([2]; PEG-300/Cremophor EL/Ethanol 47.5/47.5/5, organic solvent or mixture, PEG-300/Cremophor EL/Ethanol ratio 47.5/47.5/5, RT, read-out: Solubility (mg/mL) at RT): 13 mg/mL
half-life ([3]; 8 mg, 8 mg, Study Day 1, harmonic mean ± pseudo SD, N 4): 642 ± 498 min
AUC(0-inf) [3, 4]: 2960 ± 1540 ng·h/mL
Cmax [3, 4]: 235 ± 82.1 ng/mL
Tmax [3, 4]: 1.9 h
half-life ([3]; 8 mg, 8 mg, Study Day 15, harmonic mean ± pseudo SD, N 4): 846 ± 444 min
AUC(0-inf) [3, 5]: 2940 ± 1630 ng·h/mL
Cmax [3, 5]: 246 ± 107 ng/mL
Tmax [3, 5]: 1.9 h
AUC(0-inf) ([3]; 16 mg, 16 mg, Study Day 1, N 1): 2350 ng·h/mL
Cmax ([3]; 16 mg, 16 mg, Study Day 1, N 1): 366 ng/mL
Tmax ([3]; 16 mg, 16 mg, Study Day 1, N 1): 2.5 h
half-life ([3]; 16 mg, 16 mg, Study Day 1, N 1): 588 min
AUC(0-inf) [3, 6]: 3690 ng·h/mL
Cmax [3, 6]: 736 ng/mL
Tmax [3, 6]: 1.9 h
half-life [3, 6]: 756 min
half-life ([3]; 32 mg, 32 mg, Study Day 1, harmonic mean, N 2): 534 min
AUC(0-inf) [3, 7]: 8730 ng·h/mL
Cmax [3, 7]: 1310 ng/mL
Tmax [3, 7]: 1.9 h
half-life ([3]; 32 mg, 32 mg, Study Day 15, harmonic mean, N 2): 678 min
AUC(0-inf) [3, 8]: 8620 ng·h/mL
Cmax [3, 8]: 1370 ng/mL
Tmax [3, 8]: 2.2 h

From patent US20150126545A1, “COMPOSITIONS CONTAINING KINASE INHIBITORS” (AbbVie Inc., priority 2011, published 2015)
